Experiments:
Miapaca = test: three day MTT cytotoxicity assay, Miapaca; assay type: cell-based, human; settings: for IC50 for cell lines Miapaca / IC50: 72 hours, MTT, Miapaca; for IC50: Homo sapiens, MIA PaCa-2, read-out: IC50 for cell lines Miapaca; for Specific Index (SI) for cell lines Miapaca: ratio of IC50 of NIH 3T3 cells to Miapaca
Experimental: (§1) A number of compounds listed in Table-3 were tested for cytotoxicity against prostate, lung, laryngeal, pancreas, breast, colon and ovarian cancer, leukemia and lymphoma, human tumor cell lines. Briefly, a three day MTT cytotoxicity assay was performed, which is based on the principle of uptake of MTT (3-(4,5-dimethylthiazol-2-yl)-2,5-diphenyl tetrazolium bromide), a tetrazolium salt, by the metabolically active cells where it is metabolized by active mitochondria into a blue colored formazan product that is read spectrophotometrically. MIT was dissolved in phosphate buffered saline with a pH of 7.4 to obtain an MIT concentration of 5 mg/ml; the resulting mixture was filtered through a 0.22-micron filter to sterilize and remove a small amount of insoluble residue. For each type of tumor cell, 10,000 to 15,000 cells were seeded in a 96-well culture plate and incubated with the individual betulinic acid derivatives in a CO2 incubator for a total of 72 hours. Control cells not treated with the betulinic acid derivatives were similarly incubated. The assay was terminated by adding 100 μg (20 μl) of MIT to each well then incubating for additional one hour, and finally adding 50 μl of 10% SDS-0.01N HCl to each well to lyse the cells and dissolve formazan. After incubating for one hour, the plate was read spectrophotometrically at 540 nm and the percentage of cytotoxicity calculated using the following formula: Cytotoxicity percentage=100×[1−(X/R1)], where X=(absorbance of treated sample at 540 nm)−(absorbance of blank at 540 nm) R1=absorbance of control sample at 540 nm. The IC50 Values of the cytotoxicity defined as the concentration at which 50% of the cells are killed in vitro was calculated for each cell line treated with each of the betulinic acid derivatives.

PA1 = test: three day MTT cytotoxicity assay, PA1; assay type: cell-based, human; settings: for IC50 for cell lines PA1: PA1, 72 hours; for IC50: Homo sapiens, PA-1, PA1, 72 hours, read-out: IC50 for cell lines PA1
Experimental: (§2) Briefly, a three day MTT cytotoxicity assay was performed, which is based on the principle of uptake of MTT (3-(4,5-dimethylthiazol-2-yl)-2,5-diphenyl tetrazolium bromide), a tetrazolium salt, by the metabolically active cells where it is metabolized by active mitochondria into a blue colored formazan product that is read spectrophotometrically. MIT was dissolved in phosphate buffered saline with a pH of 7.4 to obtain an MIT concentration of 5 mg/ml; the resulting mixture was filtered through a 0.22-micron filter to sterilize and remove a small amount of insoluble residue. For each type of tumor cell, 10,000 to 15,000 cells were seeded in a 96-well culture plate and incubated with the individual betulinic acid derivatives in a CO2 incubator for a total of 72 hours. Control cells not treated with the betulinic acid derivatives were similarly incubated. The assay was terminated by adding 100 μg (20 μl) of MIT to each well then incubating for additional one hour, and finally adding 50 μl of 10% SDS-0.01N HCl to each well to lyse the cells and dissolve formazan. After incubating for one hour, the plate was read spectrophotometrically at 540 nm and the percentage of cytotoxicity calculated using the following formula: Cytotoxicity percentage=100×[1−(X/R1)], where X=(absorbance of treated sample at 540 nm)−(absorbance of blank at 540 nm) R1=absorbance of control sample at 540 nm. The IC50 Values of the cytotoxicity defined as the concentration at which 50% of the cells are killed in vitro was calculated for each cell line treated with each of the betulinic acid derivatives.

NIH 3T3 cells = test: NIH3T3 cytotoxicity test (72 h MTT assay); assay type: cell-based; settings: NIH3T3, 72 hours; for IC50: Mus musculus, read-out: IC50 for cell lines NIH3T3
Experimental: The cytotoxic effect of chemicals upon NIH 3T3 cells in culture is measured by cell metabolism determination using the previously described MIT assay. Healthy NIH 3T3 cells (an established cell-line), when maintained in culture continuously divide and multiply over time. The basis of this test is that a cytotoxic chemical (regardless of site or mechanism of action) will interfere with this process and, thus, result in a reduction of the growth rate as reflected by cell number. The degree of inhibition of growth, related to the concentration of the test compound, provides an indication of toxicity.
The NIH 3T3 cells are maintained in culture and exposed to test compounds over a range of concentrations and the number of viable cells determined after 72 hours exposure by MIT assay. The number of cells in the presence of test chemicals are compared to that observed in control cultures and the percent inhibition of growth calculated. The IC50 concentration (i.e. the concentration producing 50% inhibition of growth) is determined and expressed as μg/ml. A ratio of IC50 of NIH 3T3 cells to tumor cells is an indicator of predicted toxicity of the molecule and is represented as “Safety Index”. The higher the value, the better is the predicted safety of the molecule.

SW620 = test: three day MTT cytotoxicity assay, SW620; assay type: cell-based, human; settings: for IC50 for cell lines SW620: SW620, 72 hours; for IC50: Homo sapiens, SW-620, SW620, 72 hours, read-out: IC50 for cell lines SW620
Experimental: as §2

K562 = test: three day MTT cytotoxicity assay, K562; assay type: cell-based, human; settings: for IC50 for cell lines K562 / IC50: K562, 72 hours, MTT; for IC50: Homo sapiens, read-out: IC50 for cell lines K562; for Specific Index (SI) for cell lines K562: ratio of IC50 of NIH 3T3 cells to K562
Experimental: as §1

HBL100 = test: three day MTT cytotoxicity assay, HBL100; assay type: cell-based, human; settings: for IC50 for cell lines HBL100 / IC50: HBL100, 72 hours, MTT; for IC50: Homo sapiens, HBL-100, read-out: IC50 for cell lines HBL100; for Specific Index (SI) for cell lines HBL100: ratio of IC50 of NIH 3T3 cells to HBL100
Experimental: as §1

DU145 = test: three day MTT cytotoxicity assay, DU145; assay type: cell-based, human; settings: for IC50 for cell lines DU145: DU145, 72 hours; for IC50: Homo sapiens, DU-145, DU145, 72 hours, read-out: IC50 for cell lines DU145
A549 = test: three day MTT cytotoxicity assay, A549; assay type: cell-based, human; settings: for IC50 for cell lines A549 / IC50: A549, 72 hours, MTT; for IC50: Homo sapiens, read-out: IC50 for cell lines A549
Experimental: as §1

Structure (SMILES) | IC50 for cell lines Miapaca (Miapaca) | IC50 for cell lines PA1 (PA1) | IC50 for cell lines NIH3T3 (NIH 3T3 cells) | IC50 for cell lines SW620 (SW620) | IC50 for cell lines K562 (K562) | IC50 for cell lines HBL100 (HBL100) | IC50 for cell lines DU145 (DU145) | IC50 for cell lines A549 (A549) | IC50 (Miapaca) | IC50 (PA1) | IC50 (NIH 3T3 cells) | IC50 (SW620) | IC50 (K562) | IC50 (HBL100) | IC50 (DU145) | IC50 (A549) | Specific Index (SI) for cell lines Miapaca (Miapaca) | Specific Index (SI) for cell lines K562 (K562) | Specific Index (SI) for cell lines HBL100 (HBL100) | Specific Index (SI) for cell lines A549 (A549; ratio of IC50 of NIH 3T3 cells to A549)
C=CCOC(=O)[C@]12CC[C@@H](C(=C)C)C1C1CCC3[C@@]4(C)Cc5c([nH]c6ccccc56)C(C)(C)C4CC[C@@]3(C)[C@]1(C)CC2 (some centres unmarked) [Compound 18, 28-O-Allyl-2,3-didehydroindolo[2′,3′:2,3]betulinate] | >20 µg/mL | >20 µg/mL | >20 µg/mL | >20 µg/mL | >20 µg/mL | >20 µg/mL | >20 µg/mL | >20 µg/mL | – | – | – | – | – | – | – | – | – | – | – | –
C=C(C)[C@@H]1CC[C@]2(C(=O)OCc3ccccc3)CC[C@]3(C)C(CCC4[C@@]5(C)Cc6c([nH]c7ccc(Cl)cc67)C(C)(C)C5CC[C@]43C)C12 (some centres unmarked) [Compound 19, 28-O-Benzyl-5′-chloro-2,3-didehydroindolo[2′,′:2,3]betulinate] | >20 µg/mL | >20 µg/mL | >20 µg/mL | >20 µg/mL | >20 µg/mL | >20 µg/mL | >20 µg/mL | >20 µg/mL | – | – | – | – | – | – | – | – | – | – | – | –
C=C(C)[C@@H]1CC[C@]2(C(=O)NCC(=O)OC)CC[C@]3(C)C(CCC4[C@@]5(C)Cc6c([nH]c7ccccc67)C(C)(C)C5CC[C@]43C)C12 (some centres unmarked) [Compound 21, 28-N-Methylglycinate-2,3-didehydroindolo[2′,3′:2,3]betulinamide] | – | – | – | – | – | – | – | – | > 20 µg/mL | > 20 µg/mL | > 20 µg/mL | > 20 µg/mL | > 20 µg/mL | > 20 µg/mL | > 20 µg/mL | > 20 µg/mL | – | – | – | –
C=C(C)[C@@H]1CC[C@]2(C(=O)NCC(=O)O)CC[C@]3(C)[C@H](CC[C@@H]4[C@@]5(C)Cc6c([nH]c7ccccc67)C(C)(C)[C@@H]5CC[C@]43C)[C@@H]12 [Compound 22, 28-N-Glycine-2,3-didehydroindolo[2′,3′:2,3]betulinamide] | 0.67 ± 0.03 µg/mL | 3.0 µg/mL | 0.68 ± 0.003 µg/mL | 8.7 µg/mL | 11.92 ± 1.37 µg/mL | >20 µg/mL | 7.0 µg/mL | 3.53 ± 0.82 µg/mL | – | – | – | – | – | – | – | – | 1.015 | 0.057 | <0.034 | –
C=C(C)[C@@H]1CC[C@]2(C(=O)NCC(=O)OC)CC[C@]3(C)C(CCC4[C@@]5(C)Cc6c([nH]c7ccc(Cl)cc67)C(C)(C)C5CC[C@]43C)C12 (some centres unmarked) [Compound 23, 28-N-Methylglycinate-5′-chloro-2,3-didehydroindolo[2′,3′:2,3]betulinamide] | – | – | – | – | – | – | – | – | > 20 µg/mL | > 20 µg/mL | > 20 µg/mL | > 20 µg/mL | > 20 µg/mL | > 20 µg/mL | > 20 µg/mL | > 20 µg/mL | – | – | – | –
C=C(C)[C@@H]1CC[C@]2(C(=O)NCC(=O)O)CC[C@]3(C)C(CCC4[C@@]5(C)Cc6c([nH]c7ccc(Cl)cc67)C(C)(C)C5CC[C@]43C)C12 (some centres unmarked) [Compound 24, 28-N-Glycine-5′-chloro-2,3-didehydroindolo[2′,3′:2,3]betulinamide] | 10.7 ± 0.63 µg/mL | 6.66 µg/mL | 11.2 ± 0.63 µg/mL | 10.42 µg/mL | >20 µg/mL | 16.5 ± 0.6 µg/mL | 10.32 µg/mL | 12.4 ± 1.78 µg/mL | – | – | – | – | – | – | – | – | 1.047 | <0.56 | 0.679 | 0.903
C=C(C)[C@@H]1CC[C@]2(C(=O)Nc3ccccn3)CC[C@]3(C)C(CCC4[C@@]5(C)Cc6c([nH]c7ccc(Cl)cc67)C(C)(C)C5CC[C@]43C)C12 (some centres unmarked) [Compound 25, 28-N-(2″-pyridine)-5′-chloro-2,3-didehydroindolo[2′,′:2,3]betulinamide] | >20 µg/mL | >20 µg/mL | >20 µg/mL | >20 µg/mL | >20 µg/mL | >20 µg/mL | >20 µg/mL | >20 µg/mL | – | – | – | – | – | – | – | – | – | – | – | –
C=C(C)[C@@H]1CC[C@]2(C(=O)Nc3nccs3)CC[C@]3(C)C(CCC4[C@@]5(C)Cc6c([nH]c7ccc(Cl)cc67)C(C)(C)C5CC[C@]43C)C12 (some centres unmarked) [Compound 26, 28-N-(2″-thiazole)-5′-chloro-2,3-didehydroindolo[2′,′:2,3]betulinamide] | >20 µg/mL | >20 µg/mL | >20 µg/mL | >20 µg/mL | >20 µg/mL | >20 µg/mL | >20 µg/mL | >20 µg/mL | – | – | – | – | – | – | – | – | – | – | – | –
C#CCNC(=O)[C@]12CC[C@@H](C(=C)C)C1C1CCC3[C@@]4(C)Cc5c([nH]c6ccc(Cl)cc56)C(C)(C)C4CC[C@@]3(C)[C@]1(C)CC2 (some centres unmarked) [Compound 27, 28-N-Propargyl-5′-chloro-2,3-didehydroindolo[2′,′:2,3]betulinamide] | >20 µg/mL | >20 µg/mL | >20 µg/mL | >20 µg/mL | >20 µg/mL | >20 µg/mL | >20 µg/mL | >20 µg/mL | – | – | – | – | – | – | – | – | – | – | – | –
C=C(C)[C@@H]1CC[C@]2(C(=O)O)CC[C@]3(C)C(CCC4[C@@]5(C)Cc6c([nH]c7cc(Cl)cc(Cl)c67)C(C)(C)C5CC[C@]43C)C12 (some centres unmarked) [Compound 31, 2,3-Didehydro-4′,6′-dichloroindolo[2′,3′:2,3]betulinic acid] | >20 µg/mL | >20 µg/mL | 4.10 µg/mL | >20 µg/mL | >20 µg/mL | >20 µg/mL | >20 µg/mL | 5.5 µg/mL | – | – | – | – | – | – | – | – | – | – | – | –
C=C(C)[C@@H]1CC[C@]2(C(=O)NC3CC3)CC[C@]3(C)C(CCC4[C@@]5(C)Cc6c([nH]c7ccc(Cl)cc67)C(C)(C)C5CC[C@]43C)C12 (some centres unmarked) [Compound 34, 28-N-Cyclopropyl-5′-chloro-2,3-didehydroindolo[2′,′:2,3]betulinamide] | >20 µg/mL | >20 µg/mL | 1.82 µg/mL | >20 µg/mL | >20 µg/mL | >20 µg/mL | >20 µg/mL | >20 µg/mL | – | – | – | – | – | – | – | – | – | – | – | –

Source: patent US8022055B2, “Betulinic acid derivatives” (Dabur Pharma Limited, priority 2005, dated 2011)
